Laboratory results reported in ChEMBL document CHEMBL6078645, “Expanding the Solvent/Protein Region Occupation of the Non-Nucleoside Reverse Transcriptase Inhibitor Binding Pocket for Improved Broad-Spectrum Anti-HIV-1 Efficacy: from Rigid Phenyl-Diarylpyrimidines to Flexible Hydrophilic Piperidine-Diarylpyrimidines” (J Med Chem, 2024).
Converted amounts (≈) assume the structure as drawn. “And” between values parts separate entries of the source, which are not always exact repeats. Equal entries are not always repeated.

What was measured:
[1] = tested on: Human immunodeficiency virus 1; test: Antiviral activity against HIV-1 harboring F227L/V106A double mutant infected in human MT4 cells assessed as protection against virus-induced cytopathic effect incubated for 5 days by MTT assay; assay type: functional, organism-based
[2] = tested on: MT4; test: (§1) Cytotoxicity against human MT4 cells assessed as reduction in cell viability incubated for 5 days by MTT assay; assay type: toxicity, cell-based; settings: mt4, 120 h, 120 h, time 5 day
[3] = Selectivity index, ratio of CC50 for cytotoxicity against human MT4 cells assessed as reduction in cell viability to EC50 for antiviral activity against wild type HIV-1 IIIB infected in human MT4 cells assessed as protection against virus-induced cytopathic effect; assay type: toxicity, cell-based; settings: for selectivity ratio: MT4 cells, read-out: Ratio CC50/EC50
[4] = tested on: Human immunodeficiency virus 1; test: Antiviral activity against HIV-1 harboring RES056 mutant infected in human MT4 cells assessed as protection against virus-induced cytopathic effect incubated for 5 days by MTT assay; assay type: functional, organism-based
[5] = tested on: Human immunodeficiency virus 1; test: Antiviral activity against HIV-1 harboring Y188L mutant infected in human MT4 cells assessed as protection against virus-induced cytopathic effect incubated for 5 days by MTT assay; assay type: functional, organism-based
[6] = tested on: Human immunodeficiency virus 1; test: Antiviral activity against wild type HIV-1 IIIB infected in human MT4 cells assessed as protection against virus-induced cytopathic effect incubated for 5 days by MTT assay; assay type: functional, organism-based
[7] = molecular target: T1, Human immunodeficiency virus type 1 reverse transcriptase (Human immunodeficiency virus 1, UniProt Q72547); test: Inhibition of wildtype recombinant HIV-1 Reverse transcriptase incubated for 40 mins by spectrofluorometric analysis
[8] = Solubility of compound in phosphate buffer at pH 7.4 incubated for 24 hrs by HPLC analysis; assay type: physicochemical
[9] = Solubility of compound incubated for 24 hrs by HPLC analysis; assay type: physicochemical
[10] = molecular target: T2, Cytochrome P450 3A4 (Homo sapiens, UniProt P08684); test: Inhibition of CYP3A4 in human liver microsome using midazolam as substrate preincubated with compound for 10 minutes followed NADPH addition and measured after 15 mins by LC-MS/MS analysis; assay type: ADME, microsomes
[11] = Acute toxicity in SPF ICR mouse assessed as distress at 2 mg/kg, IG measured for 2 weeks; assay type: organism-based; settings: in vivo, po, 336 h
[12] = Acute toxicity in SPF ICR mouse assessed as lung damage at 2 mg/kg, IG measured on day 14; assay type: organism-based; settings: in vivo, po, 336 h, time 14 day
[13] = Acute toxicity in SPF ICR mouse assessed as pathological change in heart at 2 mg/kg, IG measured on day 14; assay type: organism-based; settings: in vivo, po, 336 h, time 14 day
[14] = tested on: Human immunodeficiency virus 1; test: Antiviral activity against HIV-1 harboring L100I mutant infected in human MT4 cells assessed as protection against virus-induced cytopathic effect incubated for 5 days by MTT assay; assay type: functional, organism-based; settings: Human immunodeficiency virus 1, MT4, 120 h
[15] = Solubility of compound in phosphate buffer at pH 2 incubated for 24 hrs by HPLC analysis; assay type: physicochemical
[16] = Acute toxicity in SPF ICR mouse assessed as change in body weight at 2 mg/kg, IG measured for 2 weeks; assay type: organism-based; settings: in vivo, po, 336 h
[17] = molecular target: T1, Human immunodeficiency virus type 1 reverse transcriptase; test: Inhibition of HIV-1 reverse transcriptase
[18] = molecular target: Cytochrome P450 2C19 (Homo sapiens, UniProt P33261); test: Inhibition of CYP2C19 in human liver microsome preincubated with compound for 10 minutes followed NADPH addition and measured after 15 mins by LC-MS/MS analysis; assay type: ADME, microsomes
[19] = Acute toxicity in SPF ICR mouse at 2 mg/kg, IG measured for 2 weeks; assay type: organism-based; settings: in vivo, po, 336 h
[20] = as §1; assay type: toxicity, cell-based; settings: MT4 cells, time 5 day
[21] = molecular target: T2, Cytochrome P450 3A4; test: Inhibition of CYP3A4 in human liver microsome using testosterone as substrate preincubated with compound for 10 minutes followed NADPH addition and measured after 15 mins by LC-MS/MS analysis; assay type: ADME, microsomes
[22] = Acute toxicity in SPF ICR mouse assessed as pathological change in lung at 2 mg/kg, IG measured on day 14; assay type: organism-based; settings: in vivo, po, 336 h, time 14 day
[23] = Acute toxicity in SPF ICR mouse assessed as pathological change in spleen at 2 mg/kg, IG measured on day 14; assay type: organism-based; settings: in vivo, po, 336 h, time 14 day
[24] = Solubility of compound in phosphate buffer at pH 7 incubated for 24 hrs by HPLC analysis; assay type: physicochemical
[25] = tested on: Human immunodeficiency virus 1; test: Antiviral activity against HIV-1 harboring Y181C mutant infected in human MT4 cells assessed as protection against virus-induced cytopathic effect incubated for 5 days by MTT assay; assay type: functional, organism-based; settings: Human immunodeficiency virus 1, MT4, 120 h
[26] = Acute toxicity in SPF ICR mouse assessed as pathological change in liver at 2 mg/kg, IG measured on day 14; assay type: organism-based; settings: in vivo, po, 336 h, time 14 day
[27] = tested on: Human immunodeficiency virus 1; test: Antiviral activity against HIV-1 harboring E138K mutant infected in human MT4 cells assessed as protection against virus-induced cytopathic effect incubated for 5 days by MTT assay; assay type: functional, organism-based; settings: Human immunodeficiency virus 1, MT4, 120 h
[28] = Acute toxicity in SPF ICR mouse assessed as liver damage at 2 mg/kg, IG measured on day 14; assay type: organism-based; settings: in vivo, po, 336 h, time 14 day
[29] = Acute toxicity in SPF ICR mouse assessed as pathological change in kidney at 2 mg/kg, IG measured on day 14; assay type: organism-based; settings: in vivo, po, 336 h, time 14 day
[30] = Acute toxicity in SPF ICR mouse assessed as heart damage at 2 mg/kg, IG measured on day 14; assay type: organism-based; settings: in vivo, po, 336 h, time 14 day
[31] = molecular target: T3, Cytochrome P450 1A2 (Homo sapiens, UniProt P05177); test: Inhibition of CYP1A2 in human liver microsome preincubated with compound for 10 minutes followed NADPH addition and measured after 15 mins by LC-MS/MS analysis; assay type: ADME, microsomes
T3 sequence (P05177 whole entry): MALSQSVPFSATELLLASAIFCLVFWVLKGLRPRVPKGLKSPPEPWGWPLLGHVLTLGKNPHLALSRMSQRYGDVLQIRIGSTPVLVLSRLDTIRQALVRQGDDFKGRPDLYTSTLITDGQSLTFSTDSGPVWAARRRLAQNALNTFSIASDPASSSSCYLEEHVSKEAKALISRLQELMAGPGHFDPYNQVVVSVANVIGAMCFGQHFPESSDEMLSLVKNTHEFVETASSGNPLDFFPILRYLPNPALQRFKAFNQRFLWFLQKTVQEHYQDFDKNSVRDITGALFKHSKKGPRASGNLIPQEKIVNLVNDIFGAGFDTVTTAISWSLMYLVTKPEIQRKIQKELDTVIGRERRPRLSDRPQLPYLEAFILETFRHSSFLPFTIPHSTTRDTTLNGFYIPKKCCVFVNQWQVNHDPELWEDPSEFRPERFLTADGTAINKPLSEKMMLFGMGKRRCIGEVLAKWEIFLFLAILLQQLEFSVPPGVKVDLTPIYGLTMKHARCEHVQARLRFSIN

[32] = Acute toxicity in SPF ICR mouse assessed as spleen damage at 2 mg/kg, IG measured on day 14; assay type: organism-based; settings: in vivo, po, 336 h, time 14 day
[33] = Acute toxicity in SPF ICR mouse assessed as mortality at 2 mg/kg, IG measured for 2 weeks; assay type: organism-based; settings: in vivo, po, 336 h
[34] = molecular target: Cytochrome P450 2D6 (Homo sapiens, UniProt P10635); test: Inhibition of CYP2D6 in human liver microsome preincubated with compound for 10 minutes followed NADPH addition and measured after 15 mins by LC-MS/MS analysis; assay type: ADME, microsomes
[35] = Acute toxicity in SPF ICR mouse assessed as kidney damage at 2 mg/kg, IG measured on day 14; assay type: organism-based; settings: in vivo, po, 336 h, time 14 day
[36] = molecular target: Cytochrome P450 2C9 (Homo sapiens, UniProt P11712); test: Inhibition of CYP2C9 in human liver microsome preincubated with compound for 10 minutes followed NADPH addition and measured after 15 mins by LC-MS/MS analysis; assay type: ADME, microsomes
[37] = molecular target: Voltage-gated inwardly rectifying potassium channel KCNH2 (Homo sapiens, UniProt Q12809); test: Inhibition of hERG potassium channel stably expressed in CHO cells at -80 mV holding potential by whole-cell patch-clamp analysis; assay type: toxicity, cell-based
[38] = Acute toxicity in SPF ICR mouse assessed as brain damage at 2 mg/kg, IG measured on day 14; assay type: organism-based; settings: in vivo, po, 336 h, time 14 day
[39] = tested on: Human immunodeficiency virus 1; test: Antiviral activity against HIV-1 harboring K103N mutant infected in human MT4 cells assessed as protection against virus-induced cytopathic effect incubated for 5 days by MTT assay; assay type: functional, organism-based; settings: Human immunodeficiency virus 1, MT4, 120 h
[40] = Acute toxicity in SPF ICR mouse assessed as pathological change in brain at 2 mg/kg, IG measured on day 14; assay type: organism-based; settings: in vivo, po, 336 h, time 14 day
[41] = Acute toxicity in SPF ICR mouse assessed as abnormal behavior at 2 mg/kg, IG measured for 2 weeks; assay type: organism-based; settings: in vivo, po, 336 h
[42] = Human immunodeficiency virus 1, MT4, 120 h

T2 sequence (P08684 whole entry): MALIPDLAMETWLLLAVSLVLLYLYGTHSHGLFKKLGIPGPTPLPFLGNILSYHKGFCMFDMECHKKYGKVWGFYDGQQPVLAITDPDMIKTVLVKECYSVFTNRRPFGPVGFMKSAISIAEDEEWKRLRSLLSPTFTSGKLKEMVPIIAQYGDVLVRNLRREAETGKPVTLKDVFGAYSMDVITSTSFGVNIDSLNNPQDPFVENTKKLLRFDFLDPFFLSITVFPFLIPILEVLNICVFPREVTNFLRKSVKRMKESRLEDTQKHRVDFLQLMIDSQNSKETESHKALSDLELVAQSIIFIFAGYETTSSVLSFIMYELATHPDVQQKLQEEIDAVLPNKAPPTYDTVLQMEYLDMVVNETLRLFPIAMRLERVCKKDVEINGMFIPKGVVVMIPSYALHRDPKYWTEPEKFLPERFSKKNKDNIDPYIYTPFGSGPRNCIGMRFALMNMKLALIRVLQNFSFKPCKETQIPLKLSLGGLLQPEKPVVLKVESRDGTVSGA
Cytochrome P450 2C19, sequence (P33261 whole entry): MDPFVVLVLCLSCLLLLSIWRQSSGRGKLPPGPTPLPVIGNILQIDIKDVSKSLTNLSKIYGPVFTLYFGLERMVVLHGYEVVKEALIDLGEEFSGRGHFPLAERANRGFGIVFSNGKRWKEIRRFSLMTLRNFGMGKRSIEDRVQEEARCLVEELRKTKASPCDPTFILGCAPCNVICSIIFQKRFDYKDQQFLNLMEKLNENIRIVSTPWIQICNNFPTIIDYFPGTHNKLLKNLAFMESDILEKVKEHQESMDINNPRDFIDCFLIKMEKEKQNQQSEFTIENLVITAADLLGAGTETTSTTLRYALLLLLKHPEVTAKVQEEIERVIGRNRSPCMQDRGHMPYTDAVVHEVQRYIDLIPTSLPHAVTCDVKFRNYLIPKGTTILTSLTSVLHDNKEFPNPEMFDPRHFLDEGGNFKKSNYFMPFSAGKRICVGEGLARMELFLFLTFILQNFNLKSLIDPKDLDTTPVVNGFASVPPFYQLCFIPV
Cytochrome P450 2C9, sequence (P11712 whole entry): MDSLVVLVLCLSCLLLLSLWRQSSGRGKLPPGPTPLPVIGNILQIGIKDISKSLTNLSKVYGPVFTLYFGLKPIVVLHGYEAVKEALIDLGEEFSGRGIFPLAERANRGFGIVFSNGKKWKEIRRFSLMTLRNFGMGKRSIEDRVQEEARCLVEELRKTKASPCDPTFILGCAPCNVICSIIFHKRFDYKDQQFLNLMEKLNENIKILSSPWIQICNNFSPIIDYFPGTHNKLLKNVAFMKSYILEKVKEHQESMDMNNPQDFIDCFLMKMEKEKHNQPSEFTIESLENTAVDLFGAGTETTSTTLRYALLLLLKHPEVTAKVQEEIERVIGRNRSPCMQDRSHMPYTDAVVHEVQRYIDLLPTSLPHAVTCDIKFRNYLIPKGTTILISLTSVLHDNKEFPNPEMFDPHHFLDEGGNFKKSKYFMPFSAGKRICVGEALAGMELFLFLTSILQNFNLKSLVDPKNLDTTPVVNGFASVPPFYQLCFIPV
Cytochrome P450 2D6, sequence (P10635 whole entry): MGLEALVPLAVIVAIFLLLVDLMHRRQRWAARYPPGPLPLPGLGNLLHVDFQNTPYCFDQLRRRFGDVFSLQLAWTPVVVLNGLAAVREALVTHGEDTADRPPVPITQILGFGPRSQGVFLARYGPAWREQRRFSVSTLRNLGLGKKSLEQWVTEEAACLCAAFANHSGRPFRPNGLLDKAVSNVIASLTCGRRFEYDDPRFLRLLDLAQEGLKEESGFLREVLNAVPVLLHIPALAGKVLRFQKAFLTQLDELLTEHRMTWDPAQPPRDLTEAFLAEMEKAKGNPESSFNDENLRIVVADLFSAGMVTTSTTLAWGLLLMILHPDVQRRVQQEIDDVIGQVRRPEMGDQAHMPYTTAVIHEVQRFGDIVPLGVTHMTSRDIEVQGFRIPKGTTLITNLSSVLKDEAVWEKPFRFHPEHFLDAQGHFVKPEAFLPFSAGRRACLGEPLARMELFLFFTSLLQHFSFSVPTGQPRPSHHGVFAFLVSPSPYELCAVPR
Voltage-gated inwardly rectifying potassium channel KCNH2, sequence (Q12809 whole entry): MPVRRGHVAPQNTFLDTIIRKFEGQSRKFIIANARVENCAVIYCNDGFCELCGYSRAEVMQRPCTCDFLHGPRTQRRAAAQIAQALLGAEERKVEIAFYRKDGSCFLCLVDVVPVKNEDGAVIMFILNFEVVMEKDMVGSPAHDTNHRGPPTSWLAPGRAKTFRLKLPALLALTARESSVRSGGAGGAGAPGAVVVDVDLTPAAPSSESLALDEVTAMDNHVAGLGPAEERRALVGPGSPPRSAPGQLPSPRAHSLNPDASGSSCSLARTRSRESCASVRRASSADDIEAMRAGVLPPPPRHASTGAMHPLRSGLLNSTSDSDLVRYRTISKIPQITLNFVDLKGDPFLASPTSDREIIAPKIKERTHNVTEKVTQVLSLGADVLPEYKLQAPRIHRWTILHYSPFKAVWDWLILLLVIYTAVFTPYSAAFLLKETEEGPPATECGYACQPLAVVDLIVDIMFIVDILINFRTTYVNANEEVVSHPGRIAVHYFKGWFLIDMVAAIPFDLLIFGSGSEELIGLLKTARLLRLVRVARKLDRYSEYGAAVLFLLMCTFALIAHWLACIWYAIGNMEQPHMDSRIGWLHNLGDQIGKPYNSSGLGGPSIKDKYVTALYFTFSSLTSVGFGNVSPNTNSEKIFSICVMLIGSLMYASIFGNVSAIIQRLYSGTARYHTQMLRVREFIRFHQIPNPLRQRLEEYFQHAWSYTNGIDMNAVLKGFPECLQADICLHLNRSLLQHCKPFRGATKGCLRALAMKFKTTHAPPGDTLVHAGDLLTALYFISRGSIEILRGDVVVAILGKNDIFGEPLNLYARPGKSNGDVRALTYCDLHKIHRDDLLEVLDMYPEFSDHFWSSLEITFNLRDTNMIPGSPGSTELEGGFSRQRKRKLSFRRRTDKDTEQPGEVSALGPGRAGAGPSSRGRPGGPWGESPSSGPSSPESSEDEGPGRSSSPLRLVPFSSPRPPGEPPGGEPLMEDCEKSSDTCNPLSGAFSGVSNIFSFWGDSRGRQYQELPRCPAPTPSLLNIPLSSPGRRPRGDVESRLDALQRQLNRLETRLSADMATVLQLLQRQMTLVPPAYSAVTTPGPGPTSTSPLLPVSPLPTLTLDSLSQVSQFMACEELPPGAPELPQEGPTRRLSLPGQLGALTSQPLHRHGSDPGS

Cc1cc(-c2ccncc2)cc(C)c1Oc1nc(NC2CCN(Cc3ccc(S(=O)(=O)NCCO)cc3)CC2)ncc1CO
EC50 [1, 42]: 285 nM
EC50 ([1]; mt4): 403 nM
CC50 [2]: > 210000 nM
selectivity ratio [3]: 5080
Ratio CC50/EC50 ([3]; mt4): > 5837
EC50 ([4]; mt4): 1230 nM and 2660 nM
EC50 [5, 42]: 466 nM
EC50 ([5]; mt4): 919 nM
EC50 ([6]; Human immunodeficiency virus 1, IIIB, MT4, 120 h): 28 nM
EC50 ([6]; mt4): 36 nM
IC50 [7]: 186 nM

Cc1cc(-c2ccc(C#N)cc2)cc(C)c1Oc1nc(NC2CCN(Cc3ccc(S(N)(=O)=O)cc3)CC2)ncc1CO
solubility at 24 h [8]: < 1 µg/mL
solubility at 24 h [9]: < 1 µg/mL
IC50 [10]: 50000 nM
Activity [11]: Non-toxic
Activity [12]: Non-toxic
Activity [13]: Non-toxic
EC50 [14]: 9 nM
solubility at 24 h [15]: 3520 µg/mL (≈ 5890 µM)
Activity [16]: Non-toxic
EC50 [1, 42]: 15 nM
EC50 [17]: 3 nM
IC50 [18]: 25700 nM
Activity [19]: Non-toxic
CC50 at 120 h [20]: 18200 nM
IC50 [21]: 50000 nM
Activity [22]: Non-toxic
Activity [23]: Non-toxic
solubility at 24 h [24]: < 1 µg/mL
EC50 [25]: 10 nM
Activity [26]: Non-toxic
EC50 [27]: 8 nM
Activity [28]: Non-toxic
Activity [29]: Non-toxic
Activity [30]: Non-toxic
IC50 [31]: 50000 nM
Activity [32]: Non-toxic
selectivity ratio [3]: 6540
EC50 [4, 42]: 45 nM
Activity [33]: Non-toxic
IC50 [34]: 50000 nM
Activity [35]: Non-toxic
EC50 [5, 42]: 23 nM
IC50 [36]: 17600 nM
IC50 [37]: 20000 nM
Activity [38]: Non-toxic
EC50 [39]: 9 nM
IC50 [7]: 293 nM
Activity [40]: Non-toxic
Activity [41]: Non-toxic
